Values quoted from earlier work, collected in patent US10632083B2, “Ophthalmic compositions” (SaCSh Corp., priority 2016, dated 2020).

## [H]/N=C(\N/C(=N/[H])NCCCCCCNC(=N)NC(=N)Nc1ccc(Cl)cc1)Nc1ccc(Cl)cc1 [chlorhexidine, N,N″″1,6-Hexanediylbis[N′-(4-chlorophenyl)(imidodicarbonimidic diamide)]]
Tabor et al. 1989, four cases
  eye damage after topical chlorhexidine accidentally got into the eyes: irreversible corneal damage
Van Rij et al. 1995, led to bullous keratopathy, all affected patients required corneal transplant
  eye damage after accidental application to patients undergoing eye surgery: immediate corneal edema
